From patent US11629129B2, “Microbiocidal picolinamide derivatives” (SYNGENTA PARTICIPATIONS AG, priority 2018, dated 2023)

Legend:
[1] = system: Mycosphaerella arachidis (Cercospora arachidicola); test: Mycosphaerella arachidis (Cercospora arachidicola)/Liquid Culture (Early Leaf Spot); assay type: cell-based; details: 200 ppm in the formulation, liquid culture, growth inhibition photometrically 4-5 days after application, compared to untreated control, read-out: disease control
Protocol: (§1) Mycosphaerella arachidis (Cercospora arachidicola)/Liquid Culture (Early Leaf Spot) Conidia of the fungus from cryogenic storage are directly mixed into nutrient broth (PDB potato dextrose broth). After placing a (DMSO) solution of test compound into a microtiter plate (96-well format), the nutrient broth containing the fungal spores is added. The test plates are incubated at 24° C. and the inhibition of growth is determined photometrically 4-5 days after application.

[2] = system: Phaeosphaeria nodorum (Septoria nodorum); test: Phaeosphaeria nodorum (Septoria nodorum)/Wheat/Leaf Disc Preventative (Glume Blotch); assay type: in vivo; details: Parastagonospora nodorum, foliar; 200 ppm in the formulation; wheat leaf segments cv. Kanzler, inoculated 2 days after application, assessed 5-7 days after application; compared to untreated; read-out: disease control
Protocol: Phaeosphaeria nodorum (Septoria nodorum)/Wheat/Leaf Disc Preventative (Glume Blotch) Wheat leaf segments cv. Kanzler are placed on agar in a multiwell plate (24-well format) and sprayed with the formulated test compound diluted in water. The leaf disks are inoculated with a spore suspension of the fungus 2 days after application. The inoculated test leaf disks are incubated at 20° C. and 75% rh under a light regime of 12 h light/12 h darkness in a climate cabinet and the activity of a compound is assessed as percent disease control compared to untreated when an appropriate level of disease damage appears in untreated check leaf disks (5-7 days after application).

[3] = system: Glomerella lagenarium (Colletotrichum lagenarium); test: Glomerella lagenarium (Colletotrichum lagenarium)/Liquid Culture (Anthracnose); assay type: cell-based; details: Colletotrichum orbiculare; 200 ppm in the formulation; liquid culture, growth inhibition photometrically 3 to 4 days after application; compared to untreated control; read-out: disease control
Protocol: as §1, with “Glomerella lagenarium (Colletotrichum lagenarium)/Liquid” for “Mycosphaerella arachidis (Cercospora arachidicola)/Liquid”, “(Anthracnose)” for “(Early Leaf Spot)”, “measured” for “determined”, “3 to 4” for “4-5”

[4] = system: Mycosphaerella graminicola (Septoria tritici); test: Mycosphaerella graminicola (Septoria tritici)/Liquid Culture (Septoria Blotch); assay type: cell-based; details: Zymoseptoria tritici; 200 ppm in the formulation; liquid culture, growth inhibition photometrically 4 to 5 days after application; compared to untreated control; read-out: disease control
Protocol: as §1, with “graminicola (Septoria tritici)/Liquid” for “arachidis (Cercospora arachidicola)/Liquid”, “(Septoria Blotch)” for “(Early Leaf Spot)”, “4 to 5” for “4-5”

[5] = system: Puccinia recondita f. sp. tritici; test: Puccinia recondita f. sp. tritici/Wheat/Leaf Disc Preventative (Brown Rust); assay type: in vivo; details: foliar, 200 ppm in the formulation, wheat leaf segments cv. Kanzler, inoculated 1 day after application, assessed 7-9 days after application, compared to untreated, read-out: disease control
Protocol: Puccinia recondita f. sp. tritici/Wheat/Leaf Disc Preventative (Brown Rust) Wheat leaf segments cv. Kanzler are placed on agar in multiwell plates (24-well format) and sprayed with the formulated test compound diluted in water. The leaf disks are inoculated with a spore suspension of the fungus 1 day after application. The inoculated leaf segments are incubated at 19° C. and 75% rh under a light regime of 12 h light/12 h darkness in a climate cabinet and the activity of a compound is assessed as percent disease control compared to untreated when an appropriate level of disease damage appears in untreated check leaf segments (7-9 days after application).

[6] = system: Monographella nivalis (Microdochium nivale); test: Monographella nivalis (Microdochium nivale)/Liquid Culture (Foot Rot Cereals); assay type: cell-based; details: 200 ppm in the formulation, liquid culture, growth inhibition photometrically 4-5 days after application, compared to untreated control, read-out: disease control
Protocol: as §1, with “Monographella nivalis (Microdochium nivale)/Liquid” for “Mycosphaerella arachidis (Cercospora arachidicola)/Liquid”, “(Foot Rot Cereals)” for “(Early Leaf Spot)”

[7] = system: Botryotinia fuckeliana (Botrvtis cinerea); test: Botryotinia fuckeliana (Botrvtis cinerea)/Liquid Culture (Gray Mould); assay type: cell-based; details: Botrytis cinerea; 200 ppm in the formulation; liquid culture, growth inhibition photometrically 3-4 days after application; compared to untreated control; read-out: disease control
Protocol: as §1, with “Botryotinia fuckeliana (Botrvtis cinerea)/Liquid” for “Mycosphaerella arachidis (Cercospora arachidicola)/Liquid”, “(Gray Mould)” for “(Early Leaf Spot)”, “(Vogels” for “(PDB potato dextrose”, “3-4” for “4-5”

COc1ccnc(C(=O)N[C@@H](C)C(=O)O[C@@H](C)c2ccc(Oc3ccc(C(F)(F)F)cc3Cl)cc2)c1O [I.az.001, [(1S)-1-[4-[2-chloro-4-(trifluoromethyl)phenoxy]phenyl]ethyl] (2S)-2-[(3-hydroxy-4-methoxy-pyridine-2-carbonyl)amino] propanoate]
≥ 80%: inhibition of growth at 200 ppm [1] | pest or weed control at 200 ppm [2] | inhibition of growth at 200 ppm [3] | inhibition of growth at 200 ppm [4]

COc1ccnc(C(=O)N[C@@H](C)C(=O)O[C@@H](C)c2ccc(-c3ccccc3)cc2)c1OC(C)=O [I.d.019, [(1S)-1-(4-phenylphenyl)ethyl] (2S)-2-[(3-acetoxy-4-methoxy-pyridine-2-carbonyl)amino] propanoate]
≥ 80%: pest or weed control at 200 ppm [2] | inhibition of growth at 200 ppm [4] | pest or weed control at 200 ppm [5]

COc1ccnc(C(=O)N[C@@H](C)C(=O)O[C@@H](C)c2ccc(-c3ccc(Cl)cc3C)cc2)c1O [I.n.001, [(1S)-1-[4-(4-chloro-2-methyl-phenyl)phenyl]ethyl] (2S)-2-[(3-hydroxy-4-methoxy-pyridine-2-carbonyl)amino] propanoate]
≥ 80%: inhibition of growth at 200 ppm [6] | inhibition of growth at 200 ppm [1] | inhibition of growth at 200 ppm [7] | pest or weed control at 200 ppm [2] | inhibition of growth at 200 ppm [3] | inhibition of growth at 200 ppm [4] | pest or weed control at 200 ppm [5]

COc1ccnc(C(=O)N[C@@H](C)C(=O)O[C@@H](C)c2ccc(-c3ccc(C)cc3)cc2)c1O [I.w.001, [(1S)-1-[4-(p-tolyl)phenyl]ethyl] (2S)-2-[(3-hydroxy-4-methoxy-pyridine-2-carbonyl)amino] propanoate]
≥ 80%: inhibition of growth at 200 ppm [6] | inhibition of growth at 200 ppm [1] | pest or weed control at 200 ppm [2] | inhibition of growth at 200 ppm [3] | inhibition of growth at 200 ppm [4] | pest or weed control at 200 ppm [5]

COc1ccnc(C(=O)N[C@@H](C)C(=O)O[C@@H](C)c2ccc(Oc3ccc(Cl)cc3Cl)cc2)c1O [I.aw.001, [(1S)-1-[4-(2,4-dichlorophenoxy)phenyl]ethyl] (2S)-2-[(3-hydroxy-4-methoxy-pyridine-2-carbonyl)amino] propanoate]
≥ 80%: inhibition of growth at 200 ppm [1] | pest or weed control at 200 ppm [2] | inhibition of growth at 200 ppm [3] | inhibition of growth at 200 ppm [4] | pest or weed control at 200 ppm [5]

COc1ccnc(C(=O)N[C@@H](C)C(=O)O[C@@H](C)c2ccc(Oc3cccc(C(F)(F)F)c3)cc2)c1O [I.ax.001, [(1S)-1-[4-[3-(trifluoromethyl)phenoxy]phenyl]ethyl] (2S)-2-[(3-hydroxy-4-methoxy-pyridine-2-carbonyl)amino] propanoate]
≥ 80%: inhibition of growth at 200 ppm [1] | pest or weed control at 200 ppm [2] | inhibition of growth at 200 ppm [3] | inhibition of growth at 200 ppm [4] | pest or weed control at 200 ppm [5]

COc1ccnc(C(=O)N[C@@H](C)C(=O)O[C@@H](C)c2cccc(Oc3ccccc3)c2)c1O [I.aq.001, [(1S)-1-(3-phenoxyphenyl)ethyl] (2S)-2-[(3-hydroxy-4-methoxy-pyridine-2-carbonyl)amino] propanoate]
≥ 80%: inhibition of growth at 200 ppm [7] | pest or weed control at 200 ppm [2] | inhibition of growth at 200 ppm [3] | inhibition of growth at 200 ppm [4] | pest or weed control at 200 ppm [5]

COc1ccnc(C(=O)N[C@@H](C)C(=O)O[C@@H](C)c2ccc(-c3ccc(Br)cc3)cc2)c1OC(C)=O [I.v.019, [(1S)-1-[4-(4-bromophenyl)phenyl]ethyl] (2S)-2-[(3-acetoxy-4-methoxy-pyridine-2-carbonyl)amino] propanoate]
≥ 80%: inhibition of growth at 200 ppm [6] | inhibition of growth at 200 ppm [1] | pest or weed control at 200 ppm [2] | inhibition of growth at 200 ppm [4] | pest or weed control at 200 ppm [5]

COc1ccnc(C(=O)N[C@@H](C)C(=O)O[C@@H](C)c2ccc(Oc3ccc(C(F)(F)F)cc3)cc2)c1O [I.ay.001, [(1S)-1-[4-[4-(trifluoromethyl)phenoxy]phenyl]ethyl] (2S)-2-[(3-hydroxy-4-methoxy-pyridine-2-carbonyl)amino] propanoate]
≥ 80%: inhibition of growth at 200 ppm [6] | inhibition of growth at 200 ppm [1] | pest or weed control at 200 ppm [2] | inhibition of growth at 200 ppm [3] | inhibition of growth at 200 ppm [4] | pest or weed control at 200 ppm [5]

COc1cc(-c2ccc([C@H](C)OC(=O)[C@H](C)NC(=O)c3nccc(OC)c3O)cc2)ccn1 [I.ba.001, [(1S)-1-[4-(2-methoxy-4-pyridyl)phenyl]ethyl] (2S)-2-[(3-hydroxy-4-methoxy-pyridine-2-carbonyl)amino] propanoate]
≥ 80%: inhibition of growth at 200 ppm [6] | inhibition of growth at 200 ppm [1] | pest or weed control at 200 ppm [2] | inhibition of growth at 200 ppm [3] | inhibition of growth at 200 ppm [4] | pest or weed control at 200 ppm [5]

COc1ccnc(C(=O)N[C@@H](C)C(=O)O[C@@H](C)c2ccc(-c3ccc(C(F)(F)F)cc3)cc2)c1O [I.x.001, [(1S)-1-[4-[4-(trifluoromethyl)phenyl]phenyl]ethyl] (2S)-2-[(3-hydroxy-4-methoxy-pyridine-2-carbonyl)amino] propanoate]
≥ 80%: inhibition of growth at 200 ppm [6] | inhibition of growth at 200 ppm [1] | inhibition of growth at 200 ppm [7] | inhibition of growth at 200 ppm [3] | inhibition of growth at 200 ppm [4] | pest or weed control at 200 ppm [5]

COc1ccnc(C(=O)N[C@@H](C)C(=O)O[C@@H](C)c2ccc(-c3ccccc3COC(C)(C)C)cc2)c1O [I.k.001, [(1S)-1-[4-[2-(tert-butoxymethyl)phenyl]phenyl]ethyl] (2S)-2-[(3-hydroxy-4-methoxy-pyridine-2-carbonyl)amino] propanoate]
≥ 80%: inhibition of growth at 200 ppm [1] | inhibition of growth at 200 ppm [7] | pest or weed control at 200 ppm [2] | inhibition of growth at 200 ppm [3] | inhibition of growth at 200 ppm [4] | pest or weed control at 200 ppm [5]

COc1ccnc(C(=O)N[C@@H](C)C(=O)O[C@@H](C)c2ccc(-c3ccccc3)cc2)c1O [I.d.001, [(1S)-1-(4-phenylphenyl)ethyl] (2S)-2-[(3-hydroxy-4-methoxy-pyridine-2-carbonyl)amino] propanoate]
≥ 80%: inhibition of growth at 200 ppm [6] | inhibition of growth at 200 ppm [1] | inhibition of growth at 200 ppm [7] | inhibition of growth at 200 ppm [3] | inhibition of growth at 200 ppm [4] | pest or weed control at 200 ppm [5]

COc1ccnc(C(=O)N[C@@H](C)C(=O)O[C@@H](C)c2ccc(-c3ccc(Cl)cc3)cc2)c1O [I.u.001, [(1S)-1-[4-(4-chlorophenyl)phenyl]ethyl] (2S)-2-[(3-hydroxy-4-methoxy-pyridine-2-carbonyl)amino] propanoate]
≥ 80%: inhibition of growth at 200 ppm [6] | inhibition of growth at 200 ppm [1] | inhibition of growth at 200 ppm [7] | inhibition of growth at 200 ppm [3] | inhibition of growth at 200 ppm [4] | pest or weed control at 200 ppm [5]

CCc1ccccc1-c1ccc([C@H](C)OC(=O)[C@H](C)NC(=O)c2nccc(OC)c2O)cc1 [I.i.001, [(1S)-1-[4-(2-ethylphenyl)phenyl]ethyl] (2S)-2-[(3-hydroxy-4-methoxy-pyridine-2-carbonyl)amino] propanoate]
≥ 80%: inhibition of growth at 200 ppm [1] | pest or weed control at 200 ppm [2] | inhibition of growth at 200 ppm [3] | inhibition of growth at 200 ppm [4] | pest or weed control at 200 ppm [5]
